Measured values reported in PMC12154458, “High-Throughput Screens of Repurposing Hub and DOS Chemical Libraries Reveal Compounds with Novel and Potent Inhibitory Activity Against the Essential Non-Neuronal Acetylcholinesterase of Schistosoma mansoni (SmTAChE)” (International Journal of Molecular Sciences, 2025).
Read-outs that look alike come from different tables or passages of the source.

Legend:
rSmTAChE [1] = biological target: T1, rSmTAChE (Schistosoma mansoni, UniProt A0A3Q0KMM5); experiment: biochemical
[2] = biological target: recombinant human acetylcholinesterase, rHsAChE (Homo sapiens, UniProt P22303); experiment: biochemical; conditions: for IC50: read-out: qAC50 (IC50), rHsAChE
rSmTAChE [3] = biological target: T1, rSmTAChE; type: biochemical
[4] = read-out: qAC50 (IC50), rSmTAChE
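For Inhibition (%) (Average) in this document: mostly 20 µM final but a few compounds at 5 or 10 µM.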
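For Inhibition (%) Replicate A in this document: mostly 20 µM final but a few compounds at 5 or 10 µM.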
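For Inhibition (%) Replicate B in this document: mostly 20 µM final but a few compounds at 5 or 10 µM.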

T1 sequence (A0A3Q0KMM5 27-661 limits assumed): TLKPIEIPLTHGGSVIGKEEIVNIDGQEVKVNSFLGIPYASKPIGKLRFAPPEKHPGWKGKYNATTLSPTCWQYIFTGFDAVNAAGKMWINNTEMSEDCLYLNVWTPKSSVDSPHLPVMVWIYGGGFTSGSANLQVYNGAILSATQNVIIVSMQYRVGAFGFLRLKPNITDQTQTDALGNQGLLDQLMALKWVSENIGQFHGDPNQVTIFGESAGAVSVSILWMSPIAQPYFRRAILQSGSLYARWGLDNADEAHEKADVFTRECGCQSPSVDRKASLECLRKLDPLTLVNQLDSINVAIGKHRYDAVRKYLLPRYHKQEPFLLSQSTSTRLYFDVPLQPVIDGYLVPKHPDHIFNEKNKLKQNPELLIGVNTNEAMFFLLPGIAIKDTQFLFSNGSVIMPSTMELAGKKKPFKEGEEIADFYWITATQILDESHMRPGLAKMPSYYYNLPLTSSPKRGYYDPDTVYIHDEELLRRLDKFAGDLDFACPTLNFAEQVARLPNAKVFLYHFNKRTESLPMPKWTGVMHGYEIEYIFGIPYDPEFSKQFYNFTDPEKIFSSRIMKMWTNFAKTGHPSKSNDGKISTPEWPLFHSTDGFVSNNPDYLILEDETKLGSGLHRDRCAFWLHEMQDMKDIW
Sequence of recombinant human acetylcholinesterase, rHsAChE (P22303 32-614): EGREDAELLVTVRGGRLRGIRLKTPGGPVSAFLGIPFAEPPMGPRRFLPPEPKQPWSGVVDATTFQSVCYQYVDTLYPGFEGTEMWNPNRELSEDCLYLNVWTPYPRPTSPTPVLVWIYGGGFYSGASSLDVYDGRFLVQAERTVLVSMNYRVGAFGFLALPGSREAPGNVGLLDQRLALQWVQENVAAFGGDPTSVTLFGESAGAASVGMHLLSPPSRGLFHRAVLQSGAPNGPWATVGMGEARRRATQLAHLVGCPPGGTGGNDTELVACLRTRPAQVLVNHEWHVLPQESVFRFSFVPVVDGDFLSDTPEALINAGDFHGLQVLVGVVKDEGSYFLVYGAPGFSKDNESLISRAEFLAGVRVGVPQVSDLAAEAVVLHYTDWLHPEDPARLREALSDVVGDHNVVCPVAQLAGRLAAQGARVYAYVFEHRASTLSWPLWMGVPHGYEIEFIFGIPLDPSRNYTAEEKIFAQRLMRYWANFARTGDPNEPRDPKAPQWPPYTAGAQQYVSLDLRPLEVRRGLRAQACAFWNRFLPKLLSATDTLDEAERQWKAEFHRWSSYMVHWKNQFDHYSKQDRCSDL

O=C(O)c1ccccc1Nc1ccc(CCc2ccc(Cl)c(Cl)c2)cc1 [BRD-K34657753-001-01-9]
Inhibition (%) (Average) (rSmTAChE [1]): 82.51% | Inhibition (%) Replicate A (rSmTAChE [1]): 83.46% | Inhibition (%) Replicate B (rSmTAChE [1]): 81.56% | Data Mode (curve class), rHsAChE [2]: decreasing | IC50 [2]: 8.55 µM | Data Mode (curve class), rSmTAChE (rSmTAChE [3]): decreasing | IC50 (rSmTAChE [3]; [4]): 12.4 µM

C[C@H](NC(=O)C(C)(C)Oc1ccc(C(F)(F)F)cn1)[C@@H](Cc1ccc(Cl)cc1)c1cccc(C#N)c1 [BRD-K35169477-001-01-9]
Inhibition (%) (Average) (rSmTAChE [1]): 62.68% | Inhibition (%) Replicate A (rSmTAChE [1]): 60.97% | Inhibition (%) Replicate B (rSmTAChE [1]): 64.40% | Data Mode (curve class), rHsAChE [2]: decreasing (weakly active) | IC50 [2]: > 13.5 µM | Data Mode (curve class), rSmTAChE (rSmTAChE [3]): inactive

CCCC(=O)Nc1ccc2c(c1)OC[C@@H](C)N(Cc1cc(-c3ccccc3)on1)C[C@@H](C)[C@H](OC)CN(C)C2=O [BRD-K35965314-001-01-7]
Inhibition (%) (Average) (rSmTAChE [1]): 67.01% | Inhibition (%) Replicate A (rSmTAChE [1]): 68.51% | Inhibition (%) Replicate B (rSmTAChE [1]): 65.51% | rHsAChE Data Mode [2]: inactive | rSmTAChE Data Mode (rSmTAChE [3]): inactive

CC(C)n1cnc2c(NCCc3ccc(O)cc3)nc(-c3csc4ccccc34)nc21 [BRD-K36739687-001-03-0]
Inhibition (%) (Average) (rSmTAChE [1]): 68.06% | Inhibition (%) Replicate A (rSmTAChE [1]): 70.28% | Inhibition (%) Replicate B (rSmTAChE [1]): 65.85% | Data Mode (curve class), rHsAChE [2]: inactive | Data Mode (curve class), rSmTAChE (rSmTAChE [3]): inactive

O=C(C[C@@H]1C[C@@H]2c3cc(NC(=O)NC4CCCC4)ccc3O[C@@H]2[C@H](CO)O1)NCc1ccc(Cl)cc1 [BRD-K38240817-001-01-4]
Inhibition (%) (Average) (rSmTAChE [1]): 84.65% | Inhibition (%) Replicate A (rSmTAChE [1]): 85.52% | Inhibition (%) Replicate B (rSmTAChE [1]): 83.79% | rHsAChE Data Mode [2]: decreasing (weakly active) | rSmTAChE Data Mode (rSmTAChE [3]): decreasing (weakly active)

Cc1nc2sccn2c(=O)c1CCN1CCC(=C(c2ccc(F)cc2)c2ccc(F)cc2)CC1 [BRD-K40887525-001-23-5]
Inhibition (%) (Average) (rSmTAChE [1]): 80.73% | Inhibition (%) Replicate A (rSmTAChE [1]): 82.03% | Inhibition (%) Replicate B (rSmTAChE [1]): 79.42% | Data Mode (curve class), rHsAChE [2]: decreasing | IC50 [2]: 10.9 µM | Data Mode (curve class), rSmTAChE (rSmTAChE [3]): decreasing (weakly active) | IC50 (rSmTAChE [3]; [4]): > 19.5 µM

CCOC(=O)C1=C(C)NC(C)=C(C(=O)OCC)C1c1ccccc1/C=C/C(=O)OC(C)(C)C [BRD-K43586850-001-02-9]
Inhibition (%) (Average) (rSmTAChE [1]): 95.79% | Inhibition (%) Replicate A (rSmTAChE [1]): 92.71% | Inhibition (%) Replicate B (rSmTAChE [1]): 98.87% | Data Mode (curve class), rHsAChE [2]: inactive | Data Mode (curve class), rSmTAChE (rSmTAChE [3]): inactive

COCCOc1ccc2c(c1)ncn2-c1ccc2cccc(N3CCC(N)CC3)c2n1 [BRD-K43621685-001-03-3]
Inhibition (%) (Average) (rSmTAChE [1]): 79.32% | Inhibition (%) Replicate A (rSmTAChE [1]): 80.31% | Inhibition (%) Replicate B (rSmTAChE [1]): 78.32% | Data Mode (curve class), rHsAChE [2]: decreasing | IC50 [2]: 20.7 µM | Data Mode (curve class), rSmTAChE (rSmTAChE [3]): decreasing (weakly active) | IC50 (rSmTAChE [3]; [4]): > 38 µM

CC#C[C@@H](CC(=O)O)c1ccc(OCc2cccc(-c3ccc(C(F)(F)F)cc3)c2)cc1 [BRD-K43802723-340-01-9]
Inhibition (%) (Average) (rSmTAChE [1]): 79.76% | Inhibition (%) Replicate A (rSmTAChE [1]): 80.42% | Inhibition (%) Replicate B (rSmTAChE [1]): 79.10% | Data Mode (curve class), rHsAChE [2]: decreasing | IC50 [2]: 15.4 µM | Data Mode (curve class), rSmTAChE (rSmTAChE [3]): decreasing | IC50 (rSmTAChE [3]; [4]): 13.4 µM

O=C(C[C@@H]1C=C[C@@H](NC(=O)c2ccncc2)[C@H](CO)O1)Nc1ccc(-c2ccccc2)cc1 [BRD-K45095313-001-01-2]
Inhibition (%) (Average) (rSmTAChE [1]): 61.11% | Inhibition (%) Replicate A (rSmTAChE [1]): 60.65% | Inhibition (%) Replicate B (rSmTAChE [1]): 61.57% | rHsAChE Data Mode [2]: inactive | rSmTAChE Data Mode (rSmTAChE [3]): inactive

COc1ccc(NC(=O)Nc2ccc3c(c2)[C@H]2C[C@@H](CC(=O)NCc4ccccn4)O[C@@H](CO)[C@H]2O3)cc1 [BRD-K46319090-001-01-4]
Inhibition (%) (Average) (rSmTAChE [1]): 89.33% | Inhibition (%) Replicate A (rSmTAChE [1]): 88.58% | Inhibition (%) Replicate B (rSmTAChE [1]): 90.08% | rHsAChE Data Mode [2]: inactive | rSmTAChE Data Mode (rSmTAChE [3]): decreasing | IC50 (rSmTAChE [3]; read-out: rSmTAChE qAC50): 37.8 µM
